Laboratory results: paper PMC4286194 (Biochemical Journal, 2015)

Experiments:
[1] = target: MEKK1 (Homo sapiens, UniProt Q13233); test: Kinase profiling; type: biochemical
[2] = target: T1, PINK (Tribolium castaneum, UniProt D6WMX4); test: Kinase profiling; type: biochemical
T1 sequence (D6WMX4 1-570): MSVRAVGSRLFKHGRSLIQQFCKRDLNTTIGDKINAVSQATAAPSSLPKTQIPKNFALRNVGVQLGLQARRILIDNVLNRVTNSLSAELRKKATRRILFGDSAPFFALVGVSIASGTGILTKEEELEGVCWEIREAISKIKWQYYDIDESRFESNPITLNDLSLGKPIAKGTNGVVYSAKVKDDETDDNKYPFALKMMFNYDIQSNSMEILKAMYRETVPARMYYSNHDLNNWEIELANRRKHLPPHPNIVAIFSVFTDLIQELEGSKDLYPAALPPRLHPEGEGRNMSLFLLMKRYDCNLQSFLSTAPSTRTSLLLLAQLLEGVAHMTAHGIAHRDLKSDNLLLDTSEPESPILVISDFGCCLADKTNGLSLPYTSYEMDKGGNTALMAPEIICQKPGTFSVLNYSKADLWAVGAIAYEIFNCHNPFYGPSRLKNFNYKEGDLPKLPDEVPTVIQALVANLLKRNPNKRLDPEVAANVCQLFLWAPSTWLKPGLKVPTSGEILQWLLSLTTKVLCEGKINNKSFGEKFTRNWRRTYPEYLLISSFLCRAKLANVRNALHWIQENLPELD

[3] = target: T2, IKK epsilon (Homo sapiens, UniProt Q14164); test: Kinase profiling; type: biochemical
T2 sequence (Q14164 1-716): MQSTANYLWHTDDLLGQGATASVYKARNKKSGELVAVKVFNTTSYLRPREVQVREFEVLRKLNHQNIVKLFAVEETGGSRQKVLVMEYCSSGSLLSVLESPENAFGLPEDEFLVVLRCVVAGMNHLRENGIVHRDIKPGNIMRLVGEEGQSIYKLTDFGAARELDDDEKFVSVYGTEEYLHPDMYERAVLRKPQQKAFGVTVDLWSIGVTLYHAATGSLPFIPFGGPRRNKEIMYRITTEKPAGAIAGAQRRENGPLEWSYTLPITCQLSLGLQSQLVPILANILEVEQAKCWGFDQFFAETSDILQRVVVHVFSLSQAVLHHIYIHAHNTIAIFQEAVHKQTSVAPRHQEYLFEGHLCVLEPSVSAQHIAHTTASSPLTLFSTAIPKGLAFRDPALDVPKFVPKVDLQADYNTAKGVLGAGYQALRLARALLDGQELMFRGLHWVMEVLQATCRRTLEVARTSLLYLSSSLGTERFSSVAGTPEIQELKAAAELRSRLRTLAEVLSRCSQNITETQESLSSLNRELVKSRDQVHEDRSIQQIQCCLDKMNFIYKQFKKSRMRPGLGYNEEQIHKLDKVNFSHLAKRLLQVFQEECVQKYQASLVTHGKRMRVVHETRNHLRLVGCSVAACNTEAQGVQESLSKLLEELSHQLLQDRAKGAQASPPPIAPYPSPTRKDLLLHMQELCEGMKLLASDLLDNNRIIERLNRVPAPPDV

[4] = target: HIPK3 (Homo sapiens, UniProt Q9H422); test: Kinase profiling; type: biochemical
[5] = target: T3, TSSK1 (Homo sapiens, UniProt Q9BXA7); test: Kinase profiling; type: biochemical
T3 sequence (Q9BXA7 1-367): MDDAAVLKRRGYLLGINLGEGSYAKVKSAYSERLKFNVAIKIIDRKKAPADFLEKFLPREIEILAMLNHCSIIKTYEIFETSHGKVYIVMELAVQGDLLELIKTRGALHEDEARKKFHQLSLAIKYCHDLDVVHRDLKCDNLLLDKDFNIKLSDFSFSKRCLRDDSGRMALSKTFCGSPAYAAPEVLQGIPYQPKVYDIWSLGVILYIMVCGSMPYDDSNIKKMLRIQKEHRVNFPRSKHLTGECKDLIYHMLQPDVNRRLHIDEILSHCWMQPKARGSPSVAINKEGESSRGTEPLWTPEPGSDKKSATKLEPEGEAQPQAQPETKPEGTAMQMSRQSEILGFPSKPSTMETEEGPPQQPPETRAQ

[6] = target: MKK2 (Homo sapiens, UniProt P36507); test: Kinase profiling; type: biochemical
[7] = tested on: Bone-marrow-derived macrophages; test: TLR signalling immunoblots (MAPKs, MSK1/2, CREB, IKKs, TBK1); type: cell-based, mouse; details: for Kinetics of activation of MAPKs including ERK1/2 and p38α/β: 3 μM bosutinib or 0.3 μM dasatinib, LPS or Pam3CSK4; for TLR-stimulated phosphorylation of ERK1/2, JNK1/2, p38α/β MAPKs, MSK1/2, IKKα/β, TBK1 and their direct substrates: 3 μM bosutinib, 0.3 μM dasatinib or 0.5 μM HG-9-91-01
Method: RAW264.7 cells were cultured in DMEM containing 10% FBS, 2 mM glutamine and penicillin and streptomycin. […] Cells were treated for 1 h with or without inhibitors and then stimulated for up to 24 h with either 1 μg/ml Pam3CSK4 or 100 ng/ml LPS.
Cells were extracted in lysis buffer [50 mM Tris/HCl, pH 7.4, 1 mM EDTA, 1 mM EGTA, 50 mM NaF, 5 mM sodium pyrophosphate, 10 mM sodium β-glycerol 1-phosphate, 1 mM DTT, 1 mM sodium orthovanadate, 0.27 M sucrose, 1% (v/v) Triton X-100, 1 μg/ml aprotinin, 1 μg/ml leupeptin and 1 mM PMSF]. Cell extracts were clarified by centrifugation and protein concentrations were determined using the Bradford assay. To immunoprecipitate endogenous CRTC3, 1 mg of cell extract was incubated with 5 μg of anti-CRTC3 [13] covalently cross-linked on to Protein G–Sepharose. Immune complexes were washed three times with lysis buffer, eluted in 1% SDS and separated by SDS/PAGE. To detect proteins in cell lysates, 20 μg of protein extract was separated by SDS/PAGE. After transfer to PVDF membranes, proteins were detected by immunoblotting and visualized by treating the blots with ECL (GE Healthcare) followed by autoradiography.

[8] = target: T4, MAP4K3 (Homo sapiens, UniProt Q8IVH8); test: Kinase profiling; type: biochemical
T4 sequence (Q8IVH8 1-894): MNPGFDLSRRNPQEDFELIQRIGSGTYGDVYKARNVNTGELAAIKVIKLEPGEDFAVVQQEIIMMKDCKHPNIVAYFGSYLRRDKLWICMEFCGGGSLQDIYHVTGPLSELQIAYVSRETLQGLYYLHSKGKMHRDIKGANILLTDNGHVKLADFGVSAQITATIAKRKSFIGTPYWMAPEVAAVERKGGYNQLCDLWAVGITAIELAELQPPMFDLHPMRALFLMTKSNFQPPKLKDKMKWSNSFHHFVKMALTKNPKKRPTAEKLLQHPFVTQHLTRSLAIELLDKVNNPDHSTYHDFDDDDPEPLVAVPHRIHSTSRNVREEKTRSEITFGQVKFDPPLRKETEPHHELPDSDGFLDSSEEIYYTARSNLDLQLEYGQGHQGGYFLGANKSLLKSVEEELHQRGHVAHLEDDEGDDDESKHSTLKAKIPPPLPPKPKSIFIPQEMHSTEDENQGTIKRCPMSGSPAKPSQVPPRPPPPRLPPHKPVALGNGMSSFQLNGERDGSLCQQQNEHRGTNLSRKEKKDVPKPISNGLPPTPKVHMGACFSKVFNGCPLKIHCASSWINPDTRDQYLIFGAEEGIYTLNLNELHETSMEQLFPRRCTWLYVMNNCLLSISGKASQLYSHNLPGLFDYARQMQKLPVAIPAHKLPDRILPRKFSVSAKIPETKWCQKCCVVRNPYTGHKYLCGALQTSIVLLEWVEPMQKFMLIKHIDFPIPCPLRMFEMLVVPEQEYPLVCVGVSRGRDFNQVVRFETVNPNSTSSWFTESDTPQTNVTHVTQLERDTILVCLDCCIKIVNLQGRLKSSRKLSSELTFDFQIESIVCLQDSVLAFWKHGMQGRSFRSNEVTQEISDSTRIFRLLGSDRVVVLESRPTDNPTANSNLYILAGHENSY

Chain of MKK2 (P36507 whole entry): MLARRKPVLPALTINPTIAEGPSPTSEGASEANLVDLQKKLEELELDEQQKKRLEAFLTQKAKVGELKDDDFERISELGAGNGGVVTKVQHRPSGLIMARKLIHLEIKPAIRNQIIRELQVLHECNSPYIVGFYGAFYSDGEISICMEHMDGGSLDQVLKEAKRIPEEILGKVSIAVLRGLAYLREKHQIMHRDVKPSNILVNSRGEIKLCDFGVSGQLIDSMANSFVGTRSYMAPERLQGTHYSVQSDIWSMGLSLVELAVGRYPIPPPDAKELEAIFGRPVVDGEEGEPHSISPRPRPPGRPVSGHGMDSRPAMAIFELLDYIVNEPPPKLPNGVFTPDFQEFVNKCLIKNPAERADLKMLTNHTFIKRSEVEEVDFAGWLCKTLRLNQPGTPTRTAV
Chain of HIPK3 (Q9H422 whole entry): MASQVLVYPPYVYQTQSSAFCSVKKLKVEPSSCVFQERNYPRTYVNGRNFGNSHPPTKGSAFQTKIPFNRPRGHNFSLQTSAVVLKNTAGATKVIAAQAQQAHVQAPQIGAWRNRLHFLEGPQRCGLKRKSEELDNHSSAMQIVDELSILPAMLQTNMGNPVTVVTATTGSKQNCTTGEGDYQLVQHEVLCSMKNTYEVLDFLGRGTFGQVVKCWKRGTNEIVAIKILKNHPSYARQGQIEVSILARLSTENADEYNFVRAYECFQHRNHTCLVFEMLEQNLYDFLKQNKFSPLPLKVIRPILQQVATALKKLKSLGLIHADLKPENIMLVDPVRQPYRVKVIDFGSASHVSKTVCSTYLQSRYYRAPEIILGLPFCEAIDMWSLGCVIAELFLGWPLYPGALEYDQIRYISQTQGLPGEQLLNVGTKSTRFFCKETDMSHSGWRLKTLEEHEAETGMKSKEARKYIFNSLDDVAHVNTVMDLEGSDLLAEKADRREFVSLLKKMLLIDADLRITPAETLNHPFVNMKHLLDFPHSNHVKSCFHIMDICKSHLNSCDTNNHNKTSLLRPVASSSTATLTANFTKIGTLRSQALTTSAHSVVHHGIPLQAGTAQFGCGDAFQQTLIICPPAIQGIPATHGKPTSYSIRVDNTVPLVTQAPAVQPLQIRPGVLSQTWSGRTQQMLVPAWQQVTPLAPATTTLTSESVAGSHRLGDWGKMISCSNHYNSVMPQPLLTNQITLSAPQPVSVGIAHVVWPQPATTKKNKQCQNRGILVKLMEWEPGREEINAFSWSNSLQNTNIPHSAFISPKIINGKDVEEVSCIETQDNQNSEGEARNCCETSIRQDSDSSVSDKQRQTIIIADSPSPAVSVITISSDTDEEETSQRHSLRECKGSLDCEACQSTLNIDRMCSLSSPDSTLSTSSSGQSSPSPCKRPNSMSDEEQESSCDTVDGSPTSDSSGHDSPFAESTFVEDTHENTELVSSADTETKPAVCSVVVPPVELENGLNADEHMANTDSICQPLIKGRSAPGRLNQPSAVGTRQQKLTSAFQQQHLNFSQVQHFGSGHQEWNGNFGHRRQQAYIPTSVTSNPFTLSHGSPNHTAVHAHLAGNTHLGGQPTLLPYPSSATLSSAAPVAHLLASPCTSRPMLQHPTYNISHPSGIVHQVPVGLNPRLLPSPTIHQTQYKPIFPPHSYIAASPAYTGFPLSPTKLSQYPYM
Chain of MEKK1 (Q13233 whole entry): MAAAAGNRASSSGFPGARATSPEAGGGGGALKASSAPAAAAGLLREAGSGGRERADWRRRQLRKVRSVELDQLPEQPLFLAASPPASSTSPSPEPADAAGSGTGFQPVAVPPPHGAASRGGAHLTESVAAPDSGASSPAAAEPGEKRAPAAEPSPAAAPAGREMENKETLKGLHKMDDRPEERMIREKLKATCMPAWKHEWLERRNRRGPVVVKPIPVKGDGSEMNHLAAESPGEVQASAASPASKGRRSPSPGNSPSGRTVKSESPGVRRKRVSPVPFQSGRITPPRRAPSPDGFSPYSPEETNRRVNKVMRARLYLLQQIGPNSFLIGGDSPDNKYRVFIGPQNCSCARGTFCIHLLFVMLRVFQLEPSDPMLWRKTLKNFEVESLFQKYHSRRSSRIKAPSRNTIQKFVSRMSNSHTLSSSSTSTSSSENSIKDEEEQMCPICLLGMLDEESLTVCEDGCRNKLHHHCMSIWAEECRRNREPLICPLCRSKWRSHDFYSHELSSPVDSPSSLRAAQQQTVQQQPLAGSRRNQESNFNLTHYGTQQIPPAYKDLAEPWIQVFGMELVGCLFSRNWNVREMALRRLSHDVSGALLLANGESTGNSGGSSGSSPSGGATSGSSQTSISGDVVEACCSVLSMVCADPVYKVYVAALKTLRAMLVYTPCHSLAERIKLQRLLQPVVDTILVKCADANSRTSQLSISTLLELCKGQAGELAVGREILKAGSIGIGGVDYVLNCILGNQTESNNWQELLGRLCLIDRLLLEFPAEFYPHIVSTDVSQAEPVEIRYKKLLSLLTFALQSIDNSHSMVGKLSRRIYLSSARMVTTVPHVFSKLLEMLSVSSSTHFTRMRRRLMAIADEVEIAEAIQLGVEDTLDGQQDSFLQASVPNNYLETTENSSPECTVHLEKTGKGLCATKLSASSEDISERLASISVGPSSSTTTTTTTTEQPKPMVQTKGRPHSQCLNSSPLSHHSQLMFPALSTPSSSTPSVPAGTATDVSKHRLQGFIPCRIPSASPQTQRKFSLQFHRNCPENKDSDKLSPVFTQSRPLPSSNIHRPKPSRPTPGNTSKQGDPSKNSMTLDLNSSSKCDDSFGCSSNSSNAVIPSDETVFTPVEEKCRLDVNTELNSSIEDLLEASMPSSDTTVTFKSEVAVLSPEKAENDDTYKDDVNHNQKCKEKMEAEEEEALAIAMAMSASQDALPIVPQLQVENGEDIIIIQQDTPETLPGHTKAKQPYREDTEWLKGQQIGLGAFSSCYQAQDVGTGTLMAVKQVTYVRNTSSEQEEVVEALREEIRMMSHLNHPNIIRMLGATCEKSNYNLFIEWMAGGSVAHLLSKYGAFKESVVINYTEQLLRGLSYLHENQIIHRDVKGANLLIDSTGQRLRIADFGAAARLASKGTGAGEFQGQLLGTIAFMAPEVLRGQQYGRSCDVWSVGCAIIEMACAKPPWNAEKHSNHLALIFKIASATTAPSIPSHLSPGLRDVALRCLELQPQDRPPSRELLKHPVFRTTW

Structure (SMILES) | remaining activity at 0.1 µM [1] [%] | remaining activity at 1 µM [1] [%] | remaining activity at 0.1 µM [2] [%] | remaining activity at 1 µM [2] [%] | remaining activity at 0.1 µM [3] [%] | remaining activity at 1 µM [3] [%] | remaining activity at 0.1 µM ([4]; 0.1 µM) [%] | remaining activity at 1 µM [4] [%] | remaining activity at 0.1 µM [5] [%] | remaining activity at 1 µM [5] [%] | remaining activity at 0.1 µM [6] [%] | remaining activity at 1 µM [6] [%] | Kinetics of activation of MAPKs including ERK1/2 and p38α/β [7] | TLR-stimulated phosphorylation of ERK1/2, JNK1/2, p38α/β MAPKs, MSK1/2, IKKα/β, TBK1 and their direct substrates [7] | remaining activity at 0.1 µM [8] [%] | remaining activity at 1 µM [8] [%]
Cc1nc(Nc2ncc(C(=O)Nc3c(C)cccc3Cl)s2)cc(N2CCN(CCO)CC2)n1 [Dasatinib] | 98 ± 4 | 102 ± 1 | 117 ± 1 | 133 ± 5 | 102 ± 5 | 123 ± 13 | 102 ± 3 | 113 ± 7 | 106 ± 11 | 113 ± 3 | 113 ± 11 | 91 | no effect | occurred normally | 88 ± 15 | 54 ± 1
COc1cc(Nc2c(C#N)cnc3cc(OCCCN4CCN(C)CC4)c(OC)cc23)c(Cl)cc1Cl [Bosutinib, bosutinib] | 95 ± 5 | 85 ± 6 | 112 ± 9 | 125 ± 13 | 46 ± 7 | 6 |  | 66 ± 5 | 67 ± 1 | 22 ± 2 | 60 ± 3 | 21 ± 4 | no effect | occurred normally | 3 | 1
